From ChEMBL document CHEMBL1152099, “C5-piperazinyl-1,4-benzodiazepines, water-soluble, orally bioa vailable CCKB/gastrin receptor antagonists” (Bioorg Med Chem Lett, 1995) come the findings set out here.

Converted amounts (≈) assume the structure as drawn. A value given as a limit tells only on which side of the number the result lay.

The target in data set [1] is T1, Cholecystokinin receptor type A (Rattus norvegicus, UniProt P30551).
T1 sequence (P30551 whole entry): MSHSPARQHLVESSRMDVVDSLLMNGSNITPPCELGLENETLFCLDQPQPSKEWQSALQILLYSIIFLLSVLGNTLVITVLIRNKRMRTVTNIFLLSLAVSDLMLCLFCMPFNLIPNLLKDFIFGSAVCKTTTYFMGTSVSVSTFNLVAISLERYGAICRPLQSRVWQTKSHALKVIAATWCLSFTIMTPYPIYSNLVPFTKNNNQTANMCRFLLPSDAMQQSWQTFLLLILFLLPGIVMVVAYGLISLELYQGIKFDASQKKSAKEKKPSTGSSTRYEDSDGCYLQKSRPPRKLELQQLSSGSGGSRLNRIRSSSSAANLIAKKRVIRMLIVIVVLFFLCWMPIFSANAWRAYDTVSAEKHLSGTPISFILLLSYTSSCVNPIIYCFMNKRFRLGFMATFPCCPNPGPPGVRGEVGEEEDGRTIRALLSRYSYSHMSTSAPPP
Kind of data set: Displacement of [125I]-BH CCK-8S from Cholecystokinin type A receptor in rat pancreas. For orientation: In a radioligand displacement assay an active substance lowers the binding of a labelled ligand.

The target in data set [2] is T2, Cholecystokinin receptor type A (Rattus norvegicus) (UniProt P30551).
T2 sequence (whole entry): T1 sequence (P30551 whole entry)
Kind of data set: Compound was tested for its binding affinity by measuring the displacement of [125I]-BH CCK-8S from CCKA receptor in rat pancreas at a concentration of 3000 nM.

Data set [3] is described as follows: Bioavailability. The format is ADME, organism-based. Conditions: rat, in vivo.
The nature of data set [4]: Plasma half-life was determined. Format: ADME, organism-based. Particulars: rat.
Another data set is filed under the species Rattus norvegicus. The data set is described as follows: Compound was tested for its ability to block pentagastrin-induced single cell firing rate of rat ventromedial hyphalamic (VMH) neurons. The format is functional.
Data set [5] can be described thus: Maximum plasma drug concentration was determined. Format: ADME, organism-based. Conditions: rat.
Data set [6] in a line: Tmax was determined. Conditions: rat, in vivo. Format: ADME, organism-based.
Data set [7] can be described thus: Compound was tested for solubility in water. Format: ADME. Conditions: read-out: S.

Regarding `CCCN1C(=O)[C@@H](NC(=O)Nc2cccc(C)c2)N=C(N2CCN(C)CC2)c2ccccc21`, the IC50 (as a rule, the concentration needed to halve the response being measured) in data set [1] stood at 1.9 µM.
For `Cc1cccc(NC(=O)NC2N=C(N3CCN(C(=O)OC(C)(C)C)CC3)c3ccccc3N(C)C2=O)c1` (configuration not stated), the IC50 in data set [1] was > 3 µM. Further, the inhibition – broadly, the drop in the measured response relative to a control, in per cent – in data set [2] came to 0%.
`Cc1cccc(NC(=O)NC2N=C(N3CCN(C)CC3)c3ccccc3N(C)C2=O)c1` (configuration not stated): the IC50 in data set [1] is 4.26 µM.
On the same count and under the same terms, then `CCCN1C(=O)C(NC(=O)Nc2cccc(C)c2)N=C(N2CCN(C)CC2)c2ccccc21` (configuration not stated), with 3.2 µM.
Take `CCCN1C(=O)C(NC(=O)Nc2cccc(OC)c2)N=C(N2CCN(C)CC2)c2ccccc21` (configuration not stated): the concentration for half-maximal inhibition (IC50) in data set [1] was > 3 µM. For the same molecule, in data set [2], the inhibition turned out to be 15%.
The matching figures for `CCCN1C(=O)C(NC(=O)Nc2cccc(CC)c2)N=C(N2CCN(C)CC2)c2ccccc21` (configuration not stated): > 3 µM and 46%.
Take `CCCN1C(=O)[C@H](NC(=O)Nc2cccc(C)c2)N=C(N2CCN(C)CC2)c2ccccc21`: the IC50 in data set [1] was > 3 µM. Moreover, in data set [3], the bioavailability – broadly, the share of a dose that reaches the circulation, judged against a reference dose that is usually intravenous – was determined as 51%. Also, the half-life (in general, how long it takes for the measured level to halve) in data set [4] was determined as 55 min. Further, in the data set listed under Rattus norvegicus, the Kb is 0.0018 µM. Moreover, in data set [5], the Cmax (commonly the highest concentration seen after dosing) was 469 ng/mL. The inhibition in data set [2] turned out to be 11%. Moreover, the Tmax (as a rule, the time at which the peak concentration occurs) in data set [6] is 5 min. In addition, in data set [7], the solubility came to 600 µg/mL (≈ 1340 µM).
Consider `Cc1cccc(NC(=O)N[C@@H]2N=C(c3ccccc3)c3ccccc3N3C[C@H](C)N=C23)c1`, for which, in data set [1], the IC50 came out at 1.56 µM.
Regarding `Cc1cccc(NC(=O)NC2N=C(N3CCNCC3)c3ccccc3N(C)C2=O)c1` (configuration not stated), the IC50 in data set [1] was > 3 µM. In data set [2], this molecule displayed an inhibition of 3%.
The molecule `CCCc1cccc(NC(=O)NC2N=C(N3CCN(C)CC3)c3ccccc3N(CCC)C2=O)c1` (configuration not stated) had an IC50 in data set [1] of 5.31 µM. This counts as single-digit micromolar.
Same read-out and setting: then `CCCN1C(=O)C(NC(=O)Nc2cccc(C(F)(F)F)c2)N=C(N2CCN(C)CC2)c2ccccc21` (configuration not stated), with 3.8 µM.
